Data on three compounds can be found in patent publication US20260209199A1, “TRISULFIDE COMPOUND” (Kyowa Pharma Chemical Co., Ltd., priority 2022, published 2026).

In general, logP refers to the decadic logarithm of the partition coefficient of the neutral form, usually between octanol and water. The low end stands for lower lipophilicity, the high end for higher lipophilicity.

A short description of data set [1]: Octanol/water partition coefficient (log P), HPLC. As to conditions: octanol/purified water, log10(concentration in octanol layer/concentration in aqueous layer).
Procedure: (§1) Then, 10 mL of octanol was added to each aqueous solution and shaken for 1 minute. 2 mL each was taken from the aqueous layer and the octanol layer, centrifuged, and allowed to stand for 1 hour. 1 mL was precisely measured from the standing solution, 2-propanol was added, and the volume was made up to 10 mL. […] (log P=log10 (concentration in octanol layer/concentration in aqueous layer))
For data set [2] the following is noted: disclosed in Patent Literature 2 (WO2022/045052); cited from earlier work.

Procedure for physchem: as §1

For `CC(=O)OCC(C)(C)[C@@H](O)C(=O)NCCC(=O)NCCSSSCCNC(=O)CCNC(=O)[C@H](O)C(C)(C)COC(C)=O` [Ac-PTN-SSS, acetyl derivative of pantethine trisulfide], in “physchem”, the lipophilicity (logP) is 0.91.

The compound `CC1(C)OCC(C)(C)[C@H](C(=O)NCCC(=O)NCCSSSCCNC(=O)CCNC(=O)[C@@H]2OC(C)(C)OCC2(C)C)O1` [Acetonide-PTN-SSS, acetonide derivative of pantethine trisulfide] gave a logP in “physchem” of 1.56. For the compound `CC(C)(CO)[C@@H](O)C(=O)NCCC(=O)NCCSSSCCNC(=O)CCNC(=O)[C@H](O)C(C)(C)CO` [PTN-SSS, Pantethine trisulfide], the “Partition coefficient (logP)” value in data set [1] is listed as −0.39. For the same compound, in data set [2], the “hydrogen sulfide elimination effect” value is on record as “has a hydrogen sulfide elimination effect”.
